Measurements: patent publication US9399145B2, “Nanoscale neuromodulating platform for retina neuron activation apparatus and method” (The Board of Trustees of the University of Illinois, priority 2005, dated 2016)

Experiments:
[1] = molecular target: T1, α1β2γ2 GABAARs (rat α1, rat β2 and human γ2S) (UniProt P18507+P62813+P63138); experiment: Two-electrode voltage clamp of α1β2γ2 GABAAR-expressing Xenopus oocytes; format: cell-based; settings: for electrophysiological activity of propofol analogs (FIG. 59), words: Xenopus oocyte expression system; for potentiation of the GABA response: co-applied 3 μM GABA, MPC088 1 μM, MPD021 10 or 100 μM, MPC100 10 μM
T1 construct: expressed in transfected cells; host or cells: Xenopus laevis oocytes
T1 sequence (P62813 28-455): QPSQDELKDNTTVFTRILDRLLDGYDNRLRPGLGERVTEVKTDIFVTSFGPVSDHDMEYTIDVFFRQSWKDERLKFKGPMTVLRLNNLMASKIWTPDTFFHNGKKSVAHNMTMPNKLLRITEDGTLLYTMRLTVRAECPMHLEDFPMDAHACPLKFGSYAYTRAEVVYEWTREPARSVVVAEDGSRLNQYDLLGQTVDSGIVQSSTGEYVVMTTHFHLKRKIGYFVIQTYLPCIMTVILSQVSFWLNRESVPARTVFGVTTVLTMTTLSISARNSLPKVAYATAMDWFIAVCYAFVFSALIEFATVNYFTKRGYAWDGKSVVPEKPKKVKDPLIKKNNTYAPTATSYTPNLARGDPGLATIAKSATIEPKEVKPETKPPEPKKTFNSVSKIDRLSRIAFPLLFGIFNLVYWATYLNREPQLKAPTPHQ
T1 sequence (P63138 25-474 limits assumed): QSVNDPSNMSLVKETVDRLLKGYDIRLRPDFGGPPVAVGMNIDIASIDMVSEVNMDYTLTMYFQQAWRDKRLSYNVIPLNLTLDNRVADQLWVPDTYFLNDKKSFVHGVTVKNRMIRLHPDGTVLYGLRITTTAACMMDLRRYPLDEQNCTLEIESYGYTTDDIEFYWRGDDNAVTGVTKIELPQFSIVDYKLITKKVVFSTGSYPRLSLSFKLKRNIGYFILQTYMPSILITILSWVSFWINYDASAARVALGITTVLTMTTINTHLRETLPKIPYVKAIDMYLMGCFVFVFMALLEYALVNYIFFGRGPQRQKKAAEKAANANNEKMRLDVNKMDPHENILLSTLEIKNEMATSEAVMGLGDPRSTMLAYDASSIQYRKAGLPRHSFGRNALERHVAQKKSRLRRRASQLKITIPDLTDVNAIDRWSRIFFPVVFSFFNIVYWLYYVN
T1 sequence (P18507 40-467 isoform P18507-1 limits assumed): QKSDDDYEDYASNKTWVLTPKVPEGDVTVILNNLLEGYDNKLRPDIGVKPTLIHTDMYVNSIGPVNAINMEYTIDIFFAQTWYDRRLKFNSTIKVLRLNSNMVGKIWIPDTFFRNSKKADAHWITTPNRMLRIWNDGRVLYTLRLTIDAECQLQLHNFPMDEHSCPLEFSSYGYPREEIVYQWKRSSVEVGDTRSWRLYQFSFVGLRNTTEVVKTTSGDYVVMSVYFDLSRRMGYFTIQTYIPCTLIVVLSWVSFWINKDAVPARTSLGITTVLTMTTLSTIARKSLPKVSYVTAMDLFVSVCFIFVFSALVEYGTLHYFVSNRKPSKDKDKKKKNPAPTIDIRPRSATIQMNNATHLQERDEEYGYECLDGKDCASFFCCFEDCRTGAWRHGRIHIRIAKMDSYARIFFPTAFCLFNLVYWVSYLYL
Description: Purple and gray bars indicate periods of presentation of UV light (purple) and high-intensity visible light (High-Vis) (gray), respectively. […] These amplitude determination conditions are denoted by numbers beneath the waveform in FIG. 35d.
In each of the MPC088 experiments, the cis-dominant form was generated by UV light during static bathing. […] Numbers beneath the waveform in FIG. 2(c) denote amplitude determination conditions for that experiment.
(§1) Oocytes expressing α1β2γ2 receptors (rat α1, rat β2 and human γ2S) were prepared and studied by two-electrode voltage-clamp recording^58 (holding potential: −70 mV; amplifier: GeneClamp500B; Axon Instruments, Foster City, Calif.). Unless otherwise indicated, oocytes were superfused with Ringer solution (physiological saline) at a rate of ˜1 mL/min. The experiments of FIGS. 35d-e, 36c-e and 47 involved periods of static bathing, i.e., halted superfusion. The γ2(A79C) subunit was prepared by site-directed mutagenesis. Oocyte electrophysiological experiments were carried out in room light. A UV light-emitting diode (peak wavelength: 365 nm; Hamamatsu Photonics, Japan) and a microscope illuminator (white light; Schott Fostec, Auburn, N.Y.) provided UV and visible stimulating light. As measured at the position of the oocyte, the intensity of the UV light at 365 nm was 220 μW/mm^2. At 440 nm, the nominal strength of the visible (white) light (referred to as high-intensity visible light) was 28 μW/mm^2, and that of the ambient room illumination was 0.045 μW/mm^2. In all experiments, low-intensity visible light from the microscope illuminator (3 μW/mm^2 at 440 nm) was present at all times except those involving high-intensity visible illumination. Electrophysiological data were obtained using Clampex 8.2 (Axon Instruments), analyzed using Clampfit 10.0 (Axon Instruments) and OriginPro7.5 (OriginLab, Northampton, Mass.). All statistical analysis employed a two-sample t-test.

GABAc receptors = molecular target: T2, GABAc receptors (Homo sapiens, UniProt P24046); experiment: Two-electrode voltage clamp of GABAc-expressing Xenopus oocytes; format: cell-based; settings: for Hill coefficient n: Hill fit of normalized peak amplitudes; for EC50: Hill fit of peak amplitudes normalized to saturating muscimol response
T2 construct: expressed in transfected cells; host or cells: Xenopus oocytes
T2 sequence (P24046 22-479): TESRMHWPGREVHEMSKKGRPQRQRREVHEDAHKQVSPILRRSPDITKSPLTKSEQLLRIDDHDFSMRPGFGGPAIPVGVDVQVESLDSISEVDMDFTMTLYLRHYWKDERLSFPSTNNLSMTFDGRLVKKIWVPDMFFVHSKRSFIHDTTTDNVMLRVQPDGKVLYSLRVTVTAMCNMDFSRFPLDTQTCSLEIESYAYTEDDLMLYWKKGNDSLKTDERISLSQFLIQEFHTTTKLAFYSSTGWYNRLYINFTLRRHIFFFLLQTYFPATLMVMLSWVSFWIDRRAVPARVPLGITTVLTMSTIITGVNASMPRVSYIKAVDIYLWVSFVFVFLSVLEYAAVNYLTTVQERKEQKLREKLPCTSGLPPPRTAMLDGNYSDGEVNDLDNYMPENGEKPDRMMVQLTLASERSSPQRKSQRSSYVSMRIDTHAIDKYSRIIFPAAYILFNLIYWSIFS
Description: (§2) Muscimol-biotin was synthesized wherein biotinamidoeaproic acid N-hydroxysuccinimide ester was reacted with muscimol in N-methylpyrrolidinone in the presence of diisopropylethylamine. The product was purified to homogeneity by reversed-phase HPLC. Peaks were detected by absorbance at 210 nm (FIG. 5), collected, and lyophilized to afford muscimol-biotin. The muscimol-biotin product was judged to be 97% pure by ^IH NMR spectroscopy, with no detectable contamination of the HPLC-purified product peak by muscimol (limit of detection: ca. 1%). Muscimol-biotin was dissolved in DMSO, stored at 3° C., and diluted to desired concentrations in frog Ringer before testing on the oocyte. Electrophysiology procedures used for Xenopus oocyte preparation, including GABAc expression, followed those described previously (Qian et al., 1998). Membrane currents were recorded from GABAc-expressing oocytes by 2-electrode voltage clamp apparatus. FIGS. 6-7 show results obtained for muscimol-biotin in GABAc and GABAA expressing oocytes.
(§3) FIGS. 6 and 7 show the effects of muscimol-biotin on GABAc- and GABAA expressing Xenopus oocytes. […] Right (FIG. 7): GABAA receptors. […] (B) Responses of another oocyte to 2.5 μM muscimol-biotin alone, and to co-application of 2.5 μM muscimol-biotin and 100 μM bicuculline. (C) Family of responses to varying concentrations of muscimol-biotin and to a single, saturating concentration of muscimol (200 μM thick trace) recorded from a single oocyte. (D) Normalized peak amplitudes (mean±SEM) of responses recorded from GABAA-expressing oocytes upon the application of muscimol (open circles) and muscimol-biotin (filled circles) (n=9).

GABAA receptors = experiment: Two-electrode voltage clamp of GABAA-expressing Xenopus oocytes; format: cell-based; settings: for Hill coefficient n: Hill fit of normalized peak amplitudes; for EC50: Hill fit of peak amplitudes normalized to saturating muscimol response
Description: as §2, §3

[2] = molecular target: T3, α1β2γ2(A79C) GABAARs (γ-79C) (UniProt P18507+P62813+P63138, A118C); experiment: Tethering to γ-79C GABAAR-expressing oocytes, voltage clamp; format: cell-based, rat, human
T3 construct: expressed in transfected cells; host or cells: Xenopus laevis oocytes
T3 sequence (P62813 28-455): as the sequence (P62813 28-455) above
T3 sequence (P63138 25-474 limits assumed): as the sequence (P63138 25-474 limits assumed) above
T3 sequence (P18507 40-467 isoform P18507-1 A118C limits assumed): as the sequence (P18507 40-467 isoform P18507-1 limits assumed) above, with A79C counted along it
Experimental: as §1, with “μW/mm^2.” for “μW/mm^2. In all experiments, low-intensity visible light from the microscope illuminator (3 μW/mm^2 at 440 nm) was present at all times except those involving high-intensity visible illumination. Electrophysiological data were obtained using Clampex 8.2 (Axon Instruments), analyzed using Clampfit 10.0 (Axon Instruments) and OriginPro7.5 (OriginLab, Northampton, Mass.). All statistical analysis employed a two-sample t-test.”

[3] = test system: GABAARs of retinal ganglion cells; experiment: Whole-cell patch clamp of isolated retinal ganglion cells; format: cell-based, rat; settings: co-applied 100 μM PTX
Experimental: To test whether native neuronal GABAARs respond to MPC088, retinal ganglion cells (RGCs), a cell type known to abundantly express GABAARs (Ishida et al. (1988); Fischer et al. (1998); Wässle et al. (1998); Rotolo et al. (2003)), were examined. […] The cis-dominant preparation was obtained by pre-treating trans-dominant MPC088 with UV light for 5 min.
Inset: Aggregate data for direct activation by MPC088.
Experiments were conducted on enzymatically dissociated ganglion cells obtained from adult Sprague-Dawley rats (male and female, 6-16 weeks of age) (Charles River Laboratories, Wilmington, Mass.). Procedures for euthanasia, isolation of the retina, and the dissociation of retinal cells were as described previously (Ramsey et al. (2007) except that the period of retinal cell dissociation was shortened from 40 min to 20 min. Isolated ganglion cells were identified on the basis of their morphological appearance and the presence of a large voltage-gated sodium current. Whole-cell patch-clamp techniques similar to those described (Ramsey et al. (2007)) were used to record membrane current responses to test agents. The patch pipette with a resistance of 8-12 MΩ was pulled in two stages using a micro-electrode puller (Model PP830, Narishige Group, Tokyo, Japan). The pipette was filled with an intracellular solution containing 95 mM CsCH3SO3, 20 mM TEA-Cl, 10 mM glutamic acid, 1 mM BAPTA, 10 mM HEPES, 8 mM phosphocreatine di(tris), 1 mM MgATP and 0.2 mM Na2GTP; pH adjusted to 7.2 with CsOH. Cells were clamped at 0 mV (Axopatch 200B amplifier; Axon Instruments), and experimental runs were controlled by pCLAMP system software (Axon Instruments). Electrophysiological data were obtained in response to test compounds dissolved in physiological saline (Ringer solution) that consisted of 135 mM NaCl, 5 mM KCl, 2 mM CaCl2, 2 mM MgCl2, 10 mM glucose, and 5 mM HEPES, pH 7.4. Supplementation of aqueous test solutions with MPC088 was carried out by adding an aliquot of a stock solution containing the compound dissolved in dimethyl sulfoxide (DMSO). In all experiments, the amount of carrier DMSO present in the applied test solution was <1% (v/v). Test solutions were delivered from separate reservoirs by a multi-channel perfusion system. The same UV-LED used in the oocyte experiments was used for UV illumination of MPC088-supplemented test solutions. For preparation of cis-dominant MPC088, the test solution of initially trans-dominant compound underwent a 5-min UV illumination prior to its placement in the perfusion reservoir. All preparative procedures were performed in the dark, and the reservoirs and perfusion lines were light-protected with aluminum foil. As in the oocyte experiments, data were analyzed with Clampfit and plotted with Origin. Unless otherwise stated, numerical data from replicate experiments are presented as mean±SD, and all statistical analyses of data obtained from oocytes and from retinal ganglion cells employed a two-sample t-test.

CC(C)c1cc(CCCC(=O)NCc2ccc(/N=N/c3ccc(C(=O)O)cc3)cc2)cc(C(C)C)c1O [compound 18, (E)-4-((4-((4-(4-hydroxy-3,5-diisopropylphenyl)butanamido)methyl)phenyl)diazenyl) benzoic acid]
electrophysiological activity of propofol analogs (FIG. 59), words [1]: strong GABAAR potentiation

O=C(CCCC[C@@H]1SC[C@@H]2NC(=O)N[C@@H]21)NCCCCCC(=O)NCc1cc(O)no1 [muscimol-biotin]
Hill coefficient n (GABAc receptors): 4.4 | EC50 (GABAc receptors): 20 µM | Hill coefficient n (GABAA receptors): 1.4 | EC50 (GABAA receptors): 385 µM

(E)-N-(2-Aminoethyl)-4-((4-((4-(4-hydroxy-3,5-diisopropylphenyl)butanamido)methyl)phenyl)diazenyl)benzamide [MPC088]
electrophysiological activity of propofol analogs (FIG. 59), words [1]: strong GABAAR potentiation

CC(C)c1cc(CCCC(=O)NCc2ccc(/N=N/c3ccc(C(=O)NCCNC(=O)CCOCCOCCOCCOCCOCCOCCOCCOCCOCCOCCOCCOCCOCCOCCOCCOCCOCCOCCOCCOCCOCCOCCOCCOCCNC(=O)CCN4C(=O)C=CC4=O)cc3)cc2)cc(C(C)C)c1O [MPC100, (E)-N-(82-(2,5-Dioxo-2,5-dihydro-1H-pyrrol-1-yl)-4,80-dioxo-7,10,13,16,19,22,25,28,31,34,37,40,43,46,49,52,55,58,61,64,67,70,73,76-tetracosaoxa-3,79-diazadooctacontyl)-4-((4-((4-(4-hydroxy-3,5-diisopropylphenyl)butanamido)methyl)phenyl)diazenyl)benzamide]
direct activation of wildtype receptors ([1]; 10 μM, no GABA): negligible | potentiation of the GABA response [1]: smaller than that produced by equimolar trans-dominant MPC088 | response to GABA after MPC100 treatment and Ringer perfusion ([1]; wildtype receptors, 100 μM, 7 min): not significantly enhanced | ratio of 3 μM GABA response amplitudes post- vs. pre-MPC100 treatment ([2]; 100 μM MPC100, 10 min, after methyl-(PEG)11-maleimide pre-treatment): 1.1±0.1 | potentiation after incubation and washout ([2]; 100 μM, ~5-7 min, then Ringer superfusion): persistent potentiation of the GABA response | effect of tethering on potentiating action of diazepam ([2]; data not shown): eliminated the potentiating action of diazepam

NCc1cc(=O)[nH]o1 [muscimol, reference compound]
Hill coefficient n (GABAc receptors): 1.2 | EC50 (GABAc receptors): 2 µM | Hill coefficient n (GABAA receptors): 0.74 | EC50 (GABAA receptors): 4.8 µM

methyl-(PEG)11-maleimide [reference compound]
persistent increase in the 3 μM GABA response ([2]; 1 mM, 10-min treatment): 71±25%

CC(C)c1cc(CCCC(=O)Oc2ccc(/N=N/c3ccccc3)cc2)cc(C(C)C)c1O [compound 14, (E)-4-(phenyldiazenyl) phenyl 4-(4-hydroxy-3,5-diisopropylphenyl) butanoate]
electrophysiological activity of propofol analogs (FIG. 59), words [1]: active

CC(C)c1cc(CCCC(=O)O)cc(C(C)C)c1O [compound 8]
electrophysiological activity of propofol analogs (FIG. 59), words [1]: poor activity

COC(=O)c1ccc(/N=N/c2ccc(CNC(=O)CCCc3cc(C(C)C)c(O)c(C(C)C)c3)cc2)cc1 [compound 9]
electrophysiological activity of propofol analogs (FIG. 59), words [1]: poor activity

picrotoxin [reference compound]
effect of antagonist on the MPC088-elicited response ([1]; picrotoxin 100 μg, gabazine 30 μg, bicuculline 100 μM (so in the source)): eliminated | reduction of baseline current ([2]; PTX applied to cells treated with 100 μM MPC100 and washed): 85±7% | reduction of the response to 2 μM GABA+10 μM trans-dominant MPC088 [3]: 94±1% | reduction of the response to 60 μM trans-dominant MPC088 alone [3]: 95±2%

CCCC(=O)NCc1ccc(/N=N/c2ccc(C(=O)NCCN)cc2)cc1 [MPD021, (E)-N-(2-Aminoethyl)-4-((4-(butyramidomethyl)phenyl)diazenyl)benzamide]
response amplitude relative to the 3 μM GABA response ([1]; 3 μM GABA + 10 μM compound): 1.03±0.07 | response amplitude relative to the 3 μM GABA response ([1]; 3 μM GABA + 100 μM compound): 1.03±0.11 | potentiation of the GABA response [1]: no potentiation of the GABA response
